System: Key Grass and Sedge Weeds as well as Grass Crops
Assay: Post-Emergent Test II (Table 6)
Format: in vivo
Details: post-emergence, 336 h, CYPSS, 70 g ai/ha, 14 days after application, read-out: Visual Growth Reduction (%) 14 Days After Application CYPSS
In short: (§1)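 Visual injury ratings (0 = no injury, 100 = complete kill) taken 14 days after treatment, relative to untreated controls. Compounds, in an acetone/DMSO aqueous carrier with crop oil and surfactant, were applied by track sprayer at 187 L/ha, in a twofold dilution series from the top rate, to plants at the first to second true-leaf stage.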

Row | Structure (SMILES) | pest or weed control at 70 g/ha [%]
1 | COC(=O)c1nc(-c2ccc(Cl)c(F)c2OC)cc(N)c1Cl [Compound 20] | 30 to 44

Same assay, conditions: post-emergence, 336 h, CYPSS, 140 g ai/ha, 14 days after application, read-out: Visual Growth Reduction (%) 14 Days After Application CYPSS

Row | Structure (SMILES) | pest or weed control at 140 g/ha [%]
2 | COC(=O)c1nc(-c2ccc(Cl)c(F)c2OC)cc(N)c1Cl [Compound 20] | 45 to 59

Same assay, conditions: post-emergence, 336 h, DIGSA: crabgrass (Digitaria sanguinalis), 70 g ai/ha, 14 days after application, read-out: Visual Growth Reduction (%) 14 Days After Application DIGSA

Row | Structure (SMILES) | pest or weed control at 70 g/ha [%]
3 | COC(=O)c1nc(-c2ccc(Cl)c(F)c2OC)cc(N)c1Cl [Compound 20] | 0 to 29

Same assay, conditions: post-emergence, 336 h, DIGSA: crabgrass (Digitaria sanguinalis), 140 g ai/ha, 14 days after application, read-out: Visual Growth Reduction (%) 14 Days After Application DIGSA

Row | Structure (SMILES) | pest or weed control at 140 g/ha [%]
4 | COC(=O)c1nc(-c2ccc(Cl)c(F)c2OC)cc(N)c1Cl [Compound 20] | 45 to 59

Same assay, conditions: post-emergence, 336 h, ECHSS, 70 g ai/ha, 14 days after application, read-out: Visual Growth Reduction (%) 14 Days After Application ECHSS

Row | Structure (SMILES) | pest or weed control at 70 g/ha [%]
5 | COC(=O)c1nc(-c2ccc(Cl)c(F)c2OC)cc(N)c1Cl [Compound 20] | 60 to 74

Same assay, conditions: post-emergence, 336 h, ECHSS, 140 g ai/ha, 14 days after application, read-out: Visual Growth Reduction (%) 14 Days After Application ECHSS

Row | Structure (SMILES) | pest or weed control at 140 g/ha [%]
6 | COC(=O)c1nc(-c2ccc(Cl)c(F)c2OC)cc(N)c1Cl [Compound 20] | 75 to 84

Same assay, conditions: post-emergence, 336 h, ORYSS (crop), 70 g ai/ha, 14 days after application, read-out: Visual Growth Reduction (%) 14 Days After Application ORYSS

Row | Structure (SMILES) | pest or weed control at 70 g/ha [%]
7 | COC(=O)c1nc(-c2ccc(Cl)c(F)c2OC)cc(N)c1Cl [Compound 20] | 0 to 29

Same assay, conditions: post-emergence, 336 h, ORYSS (crop), 140 g ai/ha, 14 days after application, read-out: Visual Growth Reduction (%) 14 Days After Application ORYSS

Row | Structure (SMILES) | pest or weed control at 140 g/ha [%]
8 | COC(=O)c1nc(-c2ccc(Cl)c(F)c2OC)cc(N)c1Cl [Compound 20] | 0 to 29

Same assay, conditions: post-emergence, 336 h, SETFA: giant foxtail (Setaria faberi), 70 g ai/ha, 14 days after application, read-out: Visual Growth Reduction (%) 14 Days After Application SETFA

Row | Structure (SMILES) | pest or weed control at 70 g/ha [%]
9 | COC(=O)c1nc(-c2ccc(Cl)c(F)c2OC)cc(N)c1Cl [Compound 20] | 30 to 44

Same assay, conditions: post-emergence, 336 h, SETFA: giant foxtail (Setaria faberi), 140 g ai/ha, 14 days after application, read-out: Visual Growth Reduction (%) 14 Days After Application SETFA

Row | Structure (SMILES) | pest or weed control at 140 g/ha [%]
10 | COC(=O)c1nc(-c2ccc(Cl)c(F)c2OC)cc(N)c1Cl [Compound 20] | 60 to 74

Same assay, conditions: post-emergence, 336 h, SORVU: grain sorghum (Sorghum vulgare), 70 g ai/ha, 14 days after application, read-out: Visual Growth Reduction (%) 14 Days After Application SORVU

Row | Structure (SMILES) | pest or weed control at 70 g/ha [%]
11 | COC(=O)c1nc(-c2ccc(Cl)c(F)c2OC)cc(N)c1Cl [Compound 20] | 0 to 29

Same assay, conditions: post-emergence, 336 h, SORVU: grain sorghum (Sorghum vulgare), 140 g ai/ha, 14 days after application, read-out: Visual Growth Reduction (%) 14 Days After Application SORVU

Row | Structure (SMILES) | pest or weed control at 140 g/ha [%]
12 | COC(=O)c1nc(-c2ccc(Cl)c(F)c2OC)cc(N)c1Cl [Compound 20] | 30 to 44

Same assay, conditions: post-emergence, 336 h, TRZSS (crop), 70 g ai/ha, 14 days after application, read-out: Visual Growth Reduction (%) 14 Days After Application TRZSS

Row | Structure (SMILES) | pest or weed control at 70 g/ha [%]
13 | COC(=O)c1nc(-c2ccc(Cl)c(F)c2OC)cc(N)c1Cl [Compound 20] | 0 to 29

Same assay, conditions: post-emergence, 336 h, TRZSS (crop), 140 g ai/ha, 14 days after application, read-out: Visual Growth Reduction (%) 14 Days After Application TRZSS

Row | Structure (SMILES) | pest or weed control at 140 g/ha [%]
14 | COC(=O)c1nc(-c2ccc(Cl)c(F)c2OC)cc(N)c1Cl [Compound 20] | 30 to 44

Same assay, conditions: post-emergence, 336 h, ZEAMX: maize, corn (Zea mays), 70 g ai/ha, 14 days after application, read-out: Visual Growth Reduction (%) 14 Days After Application ZEAMX

Row | Structure (SMILES) | pest or weed control at 70 g/ha [%]
15 | COC(=O)c1nc(-c2ccc(Cl)c(F)c2OC)cc(N)c1Cl [Compound 20] | 85 to 94

Same assay, conditions: post-emergence, 336 h, ZEAMX: maize, corn (Zea mays), 140 g ai/ha, 14 days after application, read-out: Visual Growth Reduction (%) 14 Days After Application ZEAMX

Row | Structure (SMILES) | pest or weed control at 140 g/ha [%]
16 | COC(=O)c1nc(-c2ccc(Cl)c(F)c2OC)cc(N)c1Cl [Compound 20] | 85 to 94

System: Key Broadleaf Weed and Crop Species
Assay: Post-Emergent Test II (Table 5)
Format: in vivo
Details: Abutilon theophrasti, post-emergence, 336 h, ABUTH: velvetleaf (Abutilon theophrasti), application rate 70 (kg ai/ha; footnote: g ai/ha), read-out: Visual Growth Reduction (%) 14 Days After Application ABUTH
In short: as §1

Row | Structure (SMILES) | pest or weed control at 70 g/ha [%]
17 | COC(=O)c1nc(-c2ccc(Cl)c(F)c2OC)cc(N)c1Cl [Compound 20] | 95 to 100

Same assay, conditions: Abutilon theophrasti, post-emergence, 336 h, ABUTH: velvetleaf (Abutilon theophrasti), application rate 140 (kg ai/ha; footnote: g ai/ha), read-out: Visual Growth Reduction (%) 14 Days After Application ABUTH

Row | Structure (SMILES) | pest or weed control at 140 g/ha [%]
18 | COC(=O)c1nc(-c2ccc(Cl)c(F)c2OC)cc(N)c1Cl [Compound 20] | 95 to 100

Same assay, conditions: Amaranthus retroflexus, post-emergence, 336 h, AMARE: redroot pigweed (Amaranthus retroflexus), application rate 70 (kg ai/ha; footnote: g ai/ha), read-out: Visual Growth Reduction (%) 14 Days After Application AMARE

Row | Structure (SMILES) | pest or weed control at 70 g/ha [%]
19 | COC(=O)c1nc(-c2ccc(Cl)c(F)c2OC)cc(N)c1Cl [Compound 20] | 95 to 100

Same assay, conditions: Amaranthus retroflexus, post-emergence, 336 h, AMARE: redroot pigweed (Amaranthus retroflexus), application rate 140 (kg ai/ha; footnote: g ai/ha), read-out: Visual Growth Reduction (%) 14 Days After Application AMARE

Row | Structure (SMILES) | pest or weed control at 140 g/ha [%]
20 | COC(=O)c1nc(-c2ccc(Cl)c(F)c2OC)cc(N)c1Cl [Compound 20] | 95 to 100

Same assay, conditions: Brassica napus, post-emergence, 336 h, BRSSS: oilseed rape, canola (Brassica napus), application rate 70 (kg ai/ha; footnote: g ai/ha), read-out: Visual Growth Reduction (%) 14 Days After Application BRSSS

Row | Structure (SMILES) | pest or weed control at 70 g/ha [%]
21 | COC(=O)c1nc(-c2ccc(Cl)c(F)c2OC)cc(N)c1Cl [Compound 20] | 95 to 100

Same assay, conditions: Brassica napus, post-emergence, 336 h, BRSSS: oilseed rape, canola (Brassica napus), application rate 140 (kg ai/ha; footnote: g ai/ha), read-out: Visual Growth Reduction (%) 14 Days After Application BRSSS

Row | Structure (SMILES) | pest or weed control at 140 g/ha [%]
22 | COC(=O)c1nc(-c2ccc(Cl)c(F)c2OC)cc(N)c1Cl [Compound 20] | 95 to 100

Same assay, conditions: Chenopodium album, post-emergence, 336 h, CHEAL: lambsquarters (Chenopodium album), application rate 70 (kg ai/ha; footnote: g ai/ha), read-out: Visual Growth Reduction (%) 14 Days After Application CHEAL

Row | Structure (SMILES) | pest or weed control at 70 g/ha [%]
23 | COC(=O)c1nc(-c2ccc(Cl)c(F)c2OC)cc(N)c1Cl [Compound 20] | 95 to 100

Same assay, conditions: Chenopodium album, post-emergence, 336 h, CHEAL: lambsquarters (Chenopodium album), application rate 140 (kg ai/ha; footnote: g ai/ha), read-out: Visual Growth Reduction (%) 14 Days After Application CHEAL

Row | Structure (SMILES) | pest or weed control at 140 g/ha [%]
24 | COC(=O)c1nc(-c2ccc(Cl)c(F)c2OC)cc(N)c1Cl [Compound 20] | 95 to 100

Same assay, conditions: Euphorbia heterophylla, post-emergence, 336 h, EPHHL: wild poinsettia (Euphorbia heterophylla), application rate 70 (kg ai/ha; footnote: g ai/ha), read-out: Visual Growth Reduction (%) 14 Days After Application EPHHL

Row | Structure (SMILES) | pest or weed control at 70 g/ha [%]
25 | COC(=O)c1nc(-c2ccc(Cl)c(F)c2OC)cc(N)c1Cl [Compound 20] | 0 to 29

Same assay, conditions: Euphorbia heterophylla, post-emergence, 336 h, EPHHL: wild poinsettia (Euphorbia heterophylla), application rate 140 (kg ai/ha; footnote: g ai/ha), read-out: Visual Growth Reduction (%) 14 Days After Application EPHHL

Row | Structure (SMILES) | pest or weed control at 140 g/ha [%]
26 | COC(=O)c1nc(-c2ccc(Cl)c(F)c2OC)cc(N)c1Cl [Compound 20] | 0 to 29

Same assay, conditions: Helianthus annuus, post-emergence, 336 h, HELAN: sunflower (Helianthus annuus), application rate 70 (kg ai/ha; footnote: g ai/ha), read-out: Visual Growth Reduction (%) 14 Days After Application HELAN

Row | Structure (SMILES) | pest or weed control at 70 g/ha [%]
27 | COC(=O)c1nc(-c2ccc(Cl)c(F)c2OC)cc(N)c1Cl [Compound 20] | 85 to 94

Same assay, conditions: Helianthus annuus, post-emergence, 336 h, HELAN: sunflower (Helianthus annuus), application rate 140 (kg ai/ha; footnote: g ai/ha), read-out: Visual Growth Reduction (%) 14 Days After Application HELAN

Row | Structure (SMILES) | pest or weed control at 140 g/ha [%]
28 | COC(=O)c1nc(-c2ccc(Cl)c(F)c2OC)cc(N)c1Cl [Compound 20] | 95 to 100

Same assay, conditions: Viola tricolor, post-emergence, 336 h, VIOTR: wild pansy (Viola tricolor), application rate 70 (kg ai/ha; footnote: g ai/ha), read-out: Visual Growth Reduction (%) 14 Days After Application VIOTR

Row | Structure (SMILES) | pest or weed control at 70 g/ha [%]
29 | COC(=O)c1nc(-c2ccc(Cl)c(F)c2OC)cc(N)c1Cl [Compound 20] | 95 to 100

Same assay, conditions: Viola tricolor, post-emergence, 336 h, VIOTR: wild pansy (Viola tricolor), application rate 140 (kg ai/ha; footnote: g ai/ha), read-out: Visual Growth Reduction (%) 14 Days After Application VIOTR

Row | Structure (SMILES) | pest or weed control at 140 g/ha [%]
30 | COC(=O)c1nc(-c2ccc(Cl)c(F)c2OC)cc(N)c1Cl [Compound 20] | 95 to 100

Reference: patent US10765114B2, “4-amino-6-(pyridyl and 2-substitutedphenyl)-picolinates and 6-amino-2-(pyridyl and 2-substitutedphenyl)-pyrimidine-4-carboxylates and their use as herbicides” (Dow AgroSciences LLC, priority 2013, dated 2020)
